Data on 25 sequences can be found in US11981944B2, “Immunogenic arginase peptides” (IO Biotech ApS, priority 2016, dated 2024).

The subject of the first experiment is TILs from eight melanoma patients. As to the kind of experiment: Intracellular staining for IFNγ and TNFα release in melanoma TILs. Type of experiment: cell-based, human. To be noted: CD4+ T cells in TILs; 5 h stimulation. The procedure:
Flow cytometry analysis was performed on a FACSCantoTM II (BD Biosciences, San Jose CA, USA). Intracellular staining of cell cultures was performed after the cells were stimulated with 20-mere peptides for 5 hours or 30-mere peptides for 8h (BD GolgiPlugTM cat. 555029, was added after the first hour). The cells were then stained for surface markers, then washed and permeabilized by using Fixation/Permeabilization and Permeabilization Buffer (eBioscience, cat. 00-5123-43), according to manufacturer's instructions. Antibodies used: IFNγ-APC (cat. 341117), TNFα-BV421 (cat. 562783), CD4-FITC (cat. 347413), CD8-PerCP (cat. 345774) (all from BD Biosciences). Dead cells were stained using FVS510 (564406, BD Biosciences) according to manufacturer's instructions. To investigate the potential presence of arginase-specific T cells among tumor-infiltrating lymphocytes in cancer, we screened TILs from eight melanoma patients for responses against arginase-1 derived peptides. To this end, we performed intracellular staining for IFNγ and TNFα release in response to peptide stimulation. TILs were thawed and rested overnight without IL-2, and then stimulated for 5 h with three hot-spot immunogenic region 20-mer peptides (peptides labelled by reference to start and end position): […]-200). […] The percentage of IFNγ-producing cells was higher for […]-190) and […]-200) compared to […]-180), and the response against […]-200) was almost twice that against […]-180).
Consider “AKDIVYIGLRDVDPGEHYIL (Peptide fragment of human Arginase 1) [Arg1-18, positions 171-190 of human Arginase 1]”, for which the “percentage of IFNγ-producing cells compared to Arg(161-180)” value is recorded as “higher”.

The same experiment, now with this note: TILs; 5 h peptide stimulation.
With “AKDIVYIGLRDVDPGEHYIL (Peptide fragment of human Arginase 1) [Arg1-18, positions 171-190 of human Arginase 1]”, the “IFNγ or TNFα release from CD8+ T cells” value is listed as “No IFNγ or TNFα release was observed”.

Staying with this experiment, now noted: one of the TIL cultures; 5 h peptide stimulation; FIG. 10A.
For the sequence “AKDIVYIGLRDVDPGEHYIL (Peptide fragment of human Arginase 1) [Arg1-18, positions 171-190 of human Arginase 1]”, the “IFNγ release from CD4+ T cells” value is on record as “IFNγ was released from CD4+ T cells”.

The test system of another experiment is PBMCs from healthy donors or cancer patients. As to the kind of experiment: IFNγ ELISPOT on PBMCs after one week peptide and IL-2 stimulation (Example 2). Type of experiment: cell-based, human. To be noted: cancer (melanoma) patient PBMCs; FIG. 9A. The procedure:
PBMCs from healthy donors or cancer patients were stimulated with 80 μg of arginase-derived peptides and 120 U/ml IL-2 (Peprotech, London, UK, cat. 200-02) for a week. 4-6×10^5 PBMCs were then placed in the bottom of ELISPOT plate (nitrocellulose bottomed 96-well plates by MultiScreen MAIP […]; Millipore, cat. MSIPN4W50) pre-coated with IFN-y capture Ab (Mabtech, cat. 3420-3-1000) and 1-10 μg of arginase derived peptides were added. PBMCs from each patient and donors were set up in duplicates or triplicates for peptide and control stimulations. Cells were incubated in ELISPOT plates in the presence of an antigen for 14-16 hours after which they are washed off and secondary biotinylated Ab (Mabtech, cat. 3420-6-1000) was added. After 2 h incubation unbound secondary antibody was washed off and streptavidin conjugated alkaline phosphatase (AP) (Mabtech, cat. 3310-10) was added for 1 h. Next, unbound conjugated enzyme is washed off and the assay is developed by adding BCIP/NBT substrate (Mabtech, cat. 3650-10). Developed ELISPOT plates were analysed on CTL ImmunoSpot S6 Ultimate-V analyzer using Immunospot software v5.1. Responses were calculated as the difference between average numbers of spots in wells stimulated with Arginase-1 peptides and control wells. We divided the entire arginase-1 protein sequence into overlapping 20-amino-acid-long peptides, generating a library of 31 peptides covering the whole sequence (SEQ ID NOs 18-48)). Each peptide in the library overlapped with the first 10 amino acids of the following peptide. Using this arginase peptide library and the IFNγ ELISPOT assay, we next screened PBMCs from melanoma patients and healthy donors for spontaneous responses (FIGS. 9A and 9B). The PBMCs were stimulated for one week with a pool of 3-4 adjacent 20-mer arginase library peptides and low-dose IL-2 (120 U/mL). They were then set up for an IFNγ ELISPOT assay to screen for responses against each 20-mer peptide separately. […] Among these overlapping peptides, […]-200), and Arg(191-210) spanned a 50-amino-acid-long region that was deemed a hot-spot region since nearly all patients harbored a response against one or more of these peptides (FIG. 9A). The selected eight peptides were further used to screen for spontaneous immune responses against arginase-1 in PBMCs from eight healthy donors using IFNγ ELISPOT. […] Since we most frequently observed responses against arginase-1 peptides from the hot-spot region, we next analyzed whether longer peptides covering the same sequence could be used instead of four 20-mers. […] We then divided the arginase-1 hot-spot region into two 30-mer peptides that overlapped by 10 amino acids (peptides labelled by reference to start and end position): […]-190) and […]-210). These 30-mer peptides were used to check for responses in selected PBMCs from cancer patients and healthy donors, which had previously shown responses against the 20-mer hot-spot peptides. The PBMCs were stimulated for one week with either […]-190) or […]-210) in the presence of IL-2, and were then used in IFNγ ELISPOT.
Take “TEEIYKTGLLSGLDIMEVNP (Peptide fragment of human Arginase 1) [Arg1-27, positions 261-280 of human Arginase 1]”: the “spontaneous IFNγ ELISPOT responses against 20-mer library peptides” value (“spontaneous IFNγ ELISPOT responses” below) is “highest and most abundant responses”.
On to “LRKAGLLEKLKEQECDVKDY (Peptide fragment of human Arginase 1) [Arg1-4, positions 31-50 of human Arginase 1]”, for which the “spontaneous IFNγ ELISPOT responses” value was “highest and most abundant responses”.
For the sequence “AKDIVYIGLRDVDPGEHYIL (Peptide fragment of human Arginase 1) [Arg1-18, positions 171-190 of human Arginase 1]”, the “spontaneous IFNγ ELISPOT responses” value is “highest and most abundant responses”.
Same read-out and setting: to “KTLGIKYFSMTEVDRLGIGK (Peptide frgment of human Arginase 1) [Arg1-20, positions 191-210 of human Arginase 1]” belongs “highest and most abundant responses”; to “HARVHPDLGVIWVDAHTDIN (Peptide fragment of human Arginase 1) [Arg1-12, positions 111-130 of human Arginase 1]”, “highest and most abundant responses”; to “GRKKRPIHLSFDVDGLDPSF (Peptide fragment of human Arginase 1) [Arg1-23, positions 221-240 of human Arginase 1]”, “highest and most abundant responses”.

Staying with this experiment, now noted: selected PBMCs from cancer patients and healthy donors; one week stimulation with IL-2; FIG. 10B, 10C.
On to “DVDPGEHYILKTLGIKYFSMTEVDRLGIGK (Peptide fragment of human Arginase 1) [Arg(181-210), 30-mer, positions 181-210 of human Arginase 1]”, for which the “IFNγ ELISPOT responses against longer hot-spot peptides” value is reported as “lower than those against the overlapping 20-mer peptides”.

The subject of another experiment is peripheral blood mononuclear cells (PBMC). As to the kind of experiment: IFN-gamma ELISPOT secretion assay on PBMC (Example 1). Type of experiment: cell-based, human. To be noted: IFN-gamma ELISPOT; PBMC from six melanoma patients; FIG. 1.
As to “LVLGGDHSL (Peptide fragment of human Arginase 1) [Arg2, positions 95-103 of human Arginase 1]”, the “specific T-cell responses against Arg-derived peptide” value (from here on “specific T-cell responses”) is “Strong responses”.
With LLKELKGKI [Arg3], the “specific T-cell responses” value is reported as “Strong responses”.
On the same count and under the same terms, to “SLGKTPEEV (Peptide fragment of human Arginase 1) [Arg7, positions 281-289 of human Arginase 1]” belongs “Strong responses”; to “GLLSGLDIM (Peptide fragment of human Arginase 1) [Arg9, positions 268-276 of human Arginase 1]”, “Strong responses”; to “HLSFDVDGL (Peptide fragment of human Arginase 1) [Arg6, positions 228-236 of human Arginase 1]”, “Strong responses”.
On the same count and under the same terms, in the case of “LLSGLDIMEV (Peptide fragment of human Arginase 1) [Arg11, positions 269-278 of human Arginase 1]” it was “Strong responses”; in that of “VLGGDHSLAI (Peptide fragment of human Arginase 1) [Arg15, positions 96-105 of human Arginase 1]”, “Strong responses”.
Take “VMEETLSYL (Peptide fragment of human Arginase 1) [Arg5, positions 211-219 of human Arginase 1]”: the “specific T-cell responses” value is reported as “Strong responses”.
On to “DIMEVNPSL (Peptide fragment of human Arginase 1) [Arg10, positions 274-282 of human Arginase 1]”, for which the “specific T-cell responses” value is listed as “Strong responses”.
Consider “YLLGRKKRPI (Peptide fragment of human Arginase 1) [Arg14, positions 218-227 of human Arginase 1]”, for which the “specific T-cell responses” value is given as “Strong responses”.

Still in this experiment, the particulars now being: PBMC from three cancer patients; FIG. 3.
As for “VMEETLSYLLGRKKRPIHLS (Peptide fragment of human Arginase 1) [Arg1-22, positions 211-230 of human Arginase 1]”, the “immune responses against overlapping 20mer peptides” value (“immune responses” below) is on record as “Frequent immune responses were detected”.
For the sequence “TEEIYKTGLLSGLDIMEVNP (Peptide fragment of human Arginase 1) [Arg1-27, positions 261-280 of human Arginase 1]”, the “immune responses” value is “Frequent immune responses were detected”.
For “LRKAGLLEKLKEQECDVKDY (Peptide fragment of human Arginase 1) [Arg1-4, positions 31-50 of human Arginase 1]”, the “immune responses” value is “Frequent immune responses were detected”.
Still for that read-out and setting: in the case of “TPLTTTSGNLHGQPVSFLLK (Peptide fragment of human Arginase 1) [Arg1-14, positions 131-150 of human Arginase 1]” it was “Frequent immune responses were detected”; in that of “MSAKSRTIGIIGAPFSKGQP (Peptide fragment of human Arginase 1) [Arg1-1, positions 1-20 of human Arginase 1]”, “Frequent immune responses were detected”; in that of “GDLPFADIPNDSPFQIVKNP (Peptide fragment of human Arginase 1) [Arg1-6, positions 51-70 of human Arginase 1]”, “Frequent immune responses were detected”.
Regarding “AKDIVYIGLRDVDPGEHYIL (Peptide fragment of human Arginase 1) [Arg1-18, positions 171-190 of human Arginase 1]”, the “immune responses” value was “Frequent immune responses were detected”.
For “DSPFQIVKNPRSVGKASEQL (Peptide fragment of human Arginase 1) [Arg1-7, positions 61-80 of human Arginase 1]”, the “immune responses” value is “Frequent immune responses were detected”.
The same measure, in the same setting: in the case of “ELKGKIPDVPGFSWVTPCIS (Peptide fragment of human Arginase 1) [Arg1-16, positions 151-170 of human Arginase 1]” it was “Frequent immune responses were detected”.
On the same count and under the same terms, in the case of “HGQPVSFLLKELKGKIPDVP (Peptide fragment of human Arginase 1) [Arg1-15, positions 141-160 of human Arginase 1]” it was “Frequent immune responses were detected”; in that of “KTLGIKYFSMTEVDRLGIGK (Peptide frgment of human Arginase 1) [Arg1-20, positions 191-210 of human Arginase 1]”, “Frequent immune responses were detected”; in that of “HARVHPDLGVIWVDAHTDIN (Peptide fragment of human Arginase 1) [Arg1-12, positions 111-130 of human Arginase 1]”, “Frequent immune responses were detected”.
For “GRKKRPIHLSFDVDGLDPSF (Peptide fragment of human Arginase 1) [Arg1-23, positions 221-240 of human Arginase 1]”, the “immune responses” value was “Frequent immune responses were detected”.
“SLGKTPEEVTRTVNTAVAIT (Peptide fragment of human Arginase 1) [Arg1-29, positions 281-300 of human Arginase 1]”: the “immune responses” value is reported as “Frequent immune responses were detected”.
